Reference: patent publication US6057371A, “Sigma receptor ligands and the use thereof” (Virginia Commonwealth University, priority 1992, dated 2000)
Where “and” joins values, the source holds several entries; their conditions need not be identical. Identical values can stand only once. Like-named read-outs stand apart in the source and are kept apart here.

How the values were obtained:
sigma receptor = assay: Sigma receptor binding, [^3 H]DTG, brain membranes (both sigma-1 and sigma-2 sites); set-up: species or system guinea pig; conditions: for IC50: Table 6, [^3 H]DTG
PCP receptor = PCP receptor binding, ^3 H-MK-801; set-up: species or system rat; conditions: Table 4
Method: PCP receptor binding assays against ^3 H-MK-801 were conducted as described by Keana et al., Proc. Natl. Acad. Sci (USA) 86: 5631-5635 (1989); Keana et al., Life Sciences 43: 965-973 (1988). For (+) ^3 H-MK-801 binding, 1 nM of radioligand was incubated with about 100 ug of thawed rat brain membrane protein for 4 hr at room temperature. The assays were carried out in 5 mM Tris/acetate and were stopped by rapid filtration through Whatman GF/B or Schleicher & Schuell no. 32 glass fiber filters (presoaked in 0.05% polyethylenamine).

Dopamine D1 receptor = target: T1, Dopamine D1 receptor (Rattus norvegicus, UniProt P18901); assay: Dopamine D1 receptor binding, [^3 H]SCH-23390, striatal membranes; conditions: Table 4
T1 construct: Rat striatal membranes were prepared from frozen tissue; from tissue; host or cells: rat striatum, frozen tissue
T1 sequence (P18901 whole entry): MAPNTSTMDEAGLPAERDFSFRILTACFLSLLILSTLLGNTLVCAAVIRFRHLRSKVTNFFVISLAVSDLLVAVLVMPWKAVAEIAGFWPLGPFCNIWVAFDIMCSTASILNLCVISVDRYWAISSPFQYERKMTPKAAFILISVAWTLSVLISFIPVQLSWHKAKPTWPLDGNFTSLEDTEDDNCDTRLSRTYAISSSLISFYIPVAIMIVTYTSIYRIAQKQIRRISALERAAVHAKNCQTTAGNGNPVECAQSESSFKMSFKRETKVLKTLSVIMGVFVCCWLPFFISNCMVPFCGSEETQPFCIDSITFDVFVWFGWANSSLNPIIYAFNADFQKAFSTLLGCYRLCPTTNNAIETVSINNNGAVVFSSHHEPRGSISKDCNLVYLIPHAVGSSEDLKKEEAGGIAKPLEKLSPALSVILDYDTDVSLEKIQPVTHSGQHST
Method: (§1) Dopamine D1 and D2 receptor binding assays were performed as described by Billard et al., Life Sci. 35: 1885-1893 (1984) using [^3 H]SCH-23390 for the D1 receptors and [^3 H]domperidone for the D2 receptors (Baudry et al., Arch. Pharmacol. 308: 231-237 (1979).
(§2) Rat striatal membranes were prepared from frozen tissue by Poltron homogenization in 25 volumes of ice cold Tris-EDTA buffer (50 mM Tris-HCl, 1 mM EDTA, pH 7.4 at 4° C.). The homogenate was centrifuged at 48,000× g for 10 min. at 4° C., and the pellet was resuspended in 25 volumes of the same buffer. This suspension was then incubated at 37° C. for 15 min., followed by recentrifugation as before. The resulting pellet was resuspended in 267 volumes of assay buffer (50 mM Tris-HCl, 120 mM NaCl, 5 mM KCl, 2 mM CaCl2, 1 mM MgCl2, pH 7.4 at 37° C.).
(§3) The binding assays were conducted with 100 uL of [^3 H]SCH-23390 or [^3 H]domperidone (to give about 1 nM final), 100 uL of buffer or drug solution, and 800 uL of membrane suspension (to give about 250 ug of striatal membrane protein per assay). The tubes were incubated at 37° C. for 60 min. The assays were stopped by rapid filtration over Schleicher & Schuell #32 or Whatman GF/B glass fiber filters (presoaked in 0.5% polyethyleneimine for [^3 H]domperidone binding), followed by two 3 mL washes of ice cold buffer using a Brandel cell harvester. After vigorous shaking, the filter disks were counted at 52% efficiency in 5 mL of Cytoscint (ICN).

Dopamine D2 receptor = target: T2, Dopamine D2 receptor (Rattus norvegicus, UniProt P61169); assay: Dopamine D2 receptor binding, [^3 H]domperidone, striatal membranes; conditions: Table 4
T2 construct: Rat striatal membranes were prepared from frozen tissue; from tissue; host or cells: rat striatum, frozen tissue
T2 sequence (P61169 whole entry): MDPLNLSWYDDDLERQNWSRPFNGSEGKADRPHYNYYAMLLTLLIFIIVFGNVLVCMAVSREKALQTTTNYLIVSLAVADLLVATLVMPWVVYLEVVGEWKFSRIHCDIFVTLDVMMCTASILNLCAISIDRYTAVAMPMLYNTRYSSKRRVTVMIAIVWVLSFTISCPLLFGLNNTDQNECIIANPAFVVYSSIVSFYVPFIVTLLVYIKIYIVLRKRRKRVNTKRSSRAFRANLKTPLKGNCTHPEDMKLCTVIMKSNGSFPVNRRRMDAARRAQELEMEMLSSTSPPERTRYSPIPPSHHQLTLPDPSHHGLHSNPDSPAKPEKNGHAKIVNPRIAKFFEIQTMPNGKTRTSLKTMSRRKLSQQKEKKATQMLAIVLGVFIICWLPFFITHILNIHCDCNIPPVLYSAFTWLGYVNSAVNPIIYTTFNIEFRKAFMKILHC
Method: as §1, §2, §3

sigma-1 binding site = target: T3, sigma-1 binding site (Cavia porcellus, UniProt Q60492); assay: biochemical; set-up: species or system guinea pig; conditions: for Ki: read-out: SIGMA-1 KI vs. 3H-PENTAZOCINE MEAN
T3 construct: Guinea pig whole membrane preparations (P2 microsomal fraction); from tissue; host or cells: guinea pig membranes (P2 microsomal fraction), as described by Weber et al; brain inferred from the sister test b489
T3 sequence (Q60492 whole entry): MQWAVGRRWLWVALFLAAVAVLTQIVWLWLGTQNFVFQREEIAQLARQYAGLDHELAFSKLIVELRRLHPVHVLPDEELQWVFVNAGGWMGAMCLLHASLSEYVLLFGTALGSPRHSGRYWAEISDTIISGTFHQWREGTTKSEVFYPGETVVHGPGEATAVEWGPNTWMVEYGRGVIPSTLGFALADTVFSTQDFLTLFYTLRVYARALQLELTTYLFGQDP
Method: [^3 H]DTG was purchased from DuPont/NEN.
The radioactivity on the filters was determined by scintillation spectrometry at an efficiency of about 50% using Cytoscint (ICN) scintillation fluid.

sigma-2 binding site [1] = target: T4, sigma-2 binding site (Cavia porcellus, UniProt H0V073); assay: biochemical; set-up: species or system guinea pig; conditions: for IC50: Table 17, read-out: IC50 (nM) at sigma-2
T4 construct: Guinea pig whole membrane preparations (P2 microsomal fraction); from tissue; host or cells: guinea pig membranes (P2 microsomal fraction), as described by Weber et al; brain inferred from the sister test b489
T4 sequence (H0V073 1-176): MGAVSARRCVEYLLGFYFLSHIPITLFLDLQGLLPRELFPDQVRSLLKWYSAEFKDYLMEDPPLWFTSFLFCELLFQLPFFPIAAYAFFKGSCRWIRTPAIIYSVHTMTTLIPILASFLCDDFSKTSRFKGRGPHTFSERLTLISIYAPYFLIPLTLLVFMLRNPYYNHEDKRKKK
Method: (§4) For the standard equilibrium assay, the mixtures were incubated for 30 min. at room temperature, then filtered and the radioactivity determined as described above.

5-HT1A receptor = target: T5, 5-HT1A receptor (Rattus norvegicus, UniProt P19327); assay: biochemical; type: binding; set-up: 47: 529-540 (1986); from tissue; host or cells: brain tissue, inferred from the cited method (rat frontal cortex); conditions: for IC50: read-out: 5-HT1A IC50
T5 sequence (P19327 1-422): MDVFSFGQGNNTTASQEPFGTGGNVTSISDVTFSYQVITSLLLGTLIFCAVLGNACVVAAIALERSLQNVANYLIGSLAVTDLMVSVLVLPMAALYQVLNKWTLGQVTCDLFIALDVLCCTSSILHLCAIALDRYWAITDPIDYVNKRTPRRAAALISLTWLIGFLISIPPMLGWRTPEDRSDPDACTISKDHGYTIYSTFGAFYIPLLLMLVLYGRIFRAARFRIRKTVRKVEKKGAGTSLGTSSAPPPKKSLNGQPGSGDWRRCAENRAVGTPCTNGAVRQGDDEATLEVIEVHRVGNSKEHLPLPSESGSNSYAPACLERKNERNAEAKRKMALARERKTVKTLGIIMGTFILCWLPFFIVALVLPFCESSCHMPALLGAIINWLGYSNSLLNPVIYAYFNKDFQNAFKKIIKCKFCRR
Method: Further sigma receptor binding assays against [^3 H]DTG and 5HT-1A binding assays were conducted according to the procedure outlined in the previous examples.

sigma sites = conditions: cited, cited from earlier work; for affinity for sigma-1 site compared to sigma-2 site: Hellewell and Bowen
sigma-2 binding site [2] = assay: biochemical; set-up: species or system guinea pig; conditions: for sigma-1/sigma-2 ratio: Example 9; for ratio of sigma-1/sigma-2 (sigma-2 selective compounds): greater than about 10, see Table 10
Method: as §4

[3] = cited, Glennon 1984; cited from earlier work
[4] = Table 10, read-out: SIGMA-2 KI vs. 3H-DTG + PENTAZOCINE MEAN

SMILES	IC50 (PCP receptor) [µM]	IC50 (Dopamine D1 receptor) [µM]	Ki (sigma-1 binding site; Table 10) [µM]	Ki (sigma-2 binding site [1]; [4])	IC50 (5-HT1A receptor; Table 5) [µM]	other results
c1ccc(CCCNCCCc2ccccc2)cc1 [Compound 15, Di-(3-phenylpropyl)-amine]	> 10	> 10	0.0114	0.0639 µM	0.0307	Ki (sigma receptor; Table 7, Phenyl-(CH2)x -NH--(CH2)y -Phenyl, read-out: Ki): 0.014 µM; IC50 (Dopamine D2 receptor): 1.68 ± 3.6 µM; S1/S2 Ratio (sigma-1 binding site; Table 10, sigma-1/sigma-2): .178; Ratio 5-HT1A /σ (5-HT1A receptor; Table 5): 2
CC(C)=CCN1CCC2(C)c3cc(O)ccc3CC1C2C (single isomer, unassigned; (+)) [(+)Pentazocine]	–	–	–	–	–	affinity for sigma-1 site compared to sigma-2 site (sigma sites): nearly two orders of magnitude higher affinity for the sigma-1 site compared to the sigma-2 site
C=CCN1CC[C@]2(C)c3cc(O)ccc3C[C@H]1[C@H]2C [(+)SKF 10047, reference compound]	–	–	–	–	–	Ki (sigma-2 binding site [1]; SIGMA-2 KI vs. 3H-DTG + PENTAZOCINE MEAN): 16.2 µM; affinity for sigma-1 site compared to sigma-2 site (sigma sites): nearly two orders of magnitude higher affinity for the sigma-1 site compared to the sigma-2 site
COc1ccccc1N1CCN(CCCCN2C(=O)c3ccccc3C2=O)CC1 [Compound 120, N-(4-(1-phthalimido)butyl)-N'-(o-methoxyphenyl)piperazine]	–	–	0.512	0.0766 µM	–	IC50 (sigma receptor): 64.7 nM; S1/S2 Ratio (sigma-1 binding site; Table 10, sigma-1/sigma-2): 6.683; sigma-1/sigma-2 ratio (sigma-2 binding site [2]): 7
c1ccc(CCNCCCc2ccc3ccccc3c2)cc1 [Compound 41]	> 10	> 10	–	–	0.0347	IC50 (Dopamine D2 receptor): 1.92 ± 0.19 µM; Ratio 5-HT1A /σ (5-HT1A receptor; Table 5): 7.6
O=C1c2ccccc2C(=O)N1CCCCN1CCN(c2ccccc2)CC1 [Compound 97]	–	–	0.195	0.0204 µM	–	IC50 (sigma receptor): 20.3 nM; S1/S2 Ratio (sigma-1 binding site; Table 10, sigma-1/sigma-2): 9.587; sigma-1/sigma-2 ratio (sigma-2 binding site [2]): 10; ratio of sigma-1/sigma-2 (sigma-2 selective compounds) (sigma-2 binding site [2]): greater than 10
COc1ccc(CC(C)NCCCc2ccccc2)cc1 (stereo not shown) [Compound 19]	> 10	> 10	–	–	0.114	Ratio 5-HT1A /σ (5-HT1A receptor): 7.6
OC1(c2ccccc2)CCN(CCCc2ccccc2)CC1 [Compound 40, 4-Hydroxy-4-phenyl-1-(3-phenylpropyl)piperidine]	> 10	> 10	0.00068	0.0092 µM and 0.00703 µM	2.96	IC50 ratio of sigma-1/sigma-2 (sigma-1 selective compounds) (sigma-1 binding site): less than 0.1; S1/S2 Ratio (sigma-1 binding site; guinea pig, microsomes): 0.074 and 0.096; Ratio 5-HT1A /σ (5-HT1A receptor): 970
CC(Cc1ccc(I)cc1)NCCCc1ccccc1 (racemic) [Compound 22, (±) N-[1-(4'-Iodophenyl)-2-propyl]-3-phenylpropylamine]	> 10	> 10	0.0177	0.076 µM	0.202	IC50 (sigma-1 binding site; Table 12, read-out: IC50 (nM) at sigma-1): 17.7 nM; S1/S2 Ratio (sigma-1 binding site; guinea pig, microsomes): 0.232; IC50 (sigma-2 binding site [1]): 76 nM; Ratio 5-HT1A /σ (5-HT1A receptor): 13
O=C1c2ccccc2C(=O)N1CCCN1CCN(c2ccccc2)CC1 [Compound 96, N-phenyl-N'-(3-(1-phthalimido)propyl)piperazine]	–	–	3.1	0.149 µM	–	IC50 (sigma receptor): 141 nM; sigma-1/sigma-2 ratio (sigma-2 binding site [2]): 87; ratio of sigma-1/sigma-2 (sigma-2 selective compounds) (sigma-2 binding site [2]): greater than 10
O=C(CCCN1CCC(O)(c2ccc(Cl)cc2)CC1)c1ccc(F)cc1 [Haloperidol]	–	–	–	–	–	affinity for sigma sites vs. N-allyl normetrazocine (NANM) (sigma sites; Tam 1984): approximately 100 fold
c1ccc(N2CCN(CCCc3ccc4ccccc4c3)CC2)cc1 [Compound 51]	> 10	2.99 ± 0.04	–	–	–	IC50 (Dopamine D2 receptor): 0.158 ± 0.028 µM
NC1CCc2ccccc2C1 (stereo not shown) [2-aminotetralin]	–	–	–	–	–	effectiveness vs. racemic amphetamine [3]: about one-half as effective as racemic amphetamine
c1ccc(CCCNC2CCc3ccccc3CC2)cc1 [Compound 49]	> 10	> 10	–	–	0.313	Ratio 5-HT1A /σ (5-HT1A receptor): 30
C[C@H](Cc1ccccc1)NCCCc1ccccc1 [Compound 1, R(-)N-(1-phenyl-2-propyl)-3-phenylpropylamine]	> 10	> 10	–	0.0608 µM	0.115	IC50 (Dopamine D2 receptor): 4.65 ± 0.43 µM; Ki (sigma-2 binding site [1]; Example 9, read-out: sigma-2 binding affinity): 0.06 µM; IC50 (sigma-2 binding site [1]): 60 nM
